What was measured:
HUVECs [1] = assay: LDH release assay on HUVECs; type: cell-based, human; conditions: 24 h
Description: (§1) Lactate Dehydrogenase (LDH) activity in HUVECs, HGFs, and HOBs was measured with a cytotoxicity detection kit LDH (Roche, Basilea, Swiss). Firstly, 5000 cells/well (HUVECs, HGFs and HOBs) were seeded in 96-well plates and treated with 1d and 1h (5, 10, 20 µM). After 24 h, the assay was performed according to manufacturer instructions. LDH release was calculated as a percentage with respect to the control (CTRL).

HGFs [2] = assay: LDH release assay on HGFs; type: cell-based, human; conditions: 24 h
Description: as §1

HGFs [3] = assay: MTT viability/proliferation on HGFs; type: cell-based, human; conditions: vs CTRL and RSV 10 µM
Description: For the initial screening, HGFs were seeded at a density of 8000 cells/well into a 96-well culture plate and cultured for 24 h. […] The DMSO final concentration was established at 0.1% in all tested samples.
To measure HUVECs, HGFs, and HOBs metabolic activity as an indicator of cell viability and proliferation, an MTT assay (Sigma Aldrich, Milan, Italy) was performed. In brief, 8000 cells/well (HUVECs, HGFs and HOBs) were seeded in 96-well plates and after 24 h cells were treated with increasing concentrations of 1d and 1h for 48 h and 72 h. Then, the medium was replaced by a fresh one supplemented with […] MTT and probed for 4 h at 37 °C. The medium containing MTT was discarded and replaced by an equal volume of DMSO to dissolve formazan crystals. The absorbance of the solution was read at a 540 nm wavelength by a microplate reader (Multiskan GO, Thermo Scientific, MA, USA). Values obtained without cells were considered as background. Viability and proliferation were normalized to control cells treated with DMSO 0.1%.

HUVECs [4] = assay: Toluidine blue staining, morphology and confluence of HUVECs; type: cell-based, human; conditions: 5 µM; for HUVECs confluence: 48 h, compared to CTRL and RSV; for HUVECs growth / confluence: 72 h, compared to controls
Description: The influence of 1d and 1h was evaluated on cells density and morphology by toluidine-blue staining. A total of 2 × 10^4 cells/well were cultured in 24-well plates and were incubated at 37 °C and 5% CO2 with tested compounds at 5 µM. After 48 and 72 h, adherent cells were fixed with 70% cold ethanol and stained with 1% toluidine blue and 1% borax (Sigma Aldrich, St. Louis, MO, USA). Cells were then observed by an inverted microscope connected with a camera at 40×, 100×, and 200× magnifications (Leica, Wild Heer-brugg, Wetzlar, Germany).

[5] = system: Alkaline phosphatase (ALP) activity in HOBs; assay: ALP activity assay in HOBs; type: cell-based, human; conditions: 5 µM, 7 days, compared to CTRL and RSV; not statistically significant
Description: Alkaline phosphatase (ALP) activity was evaluated by ALP assay kit colorimetric AB83369 (Abcam Inc., Cambridge, UK). HOBs were seeded at a density of 5 × 10^4 cells/well and treated with 1d and 1h. After 7 days of culture, cell lysate was obtained, and ALP levels were measured according to the manufacturer instructions. The absorbance was measured at 450 nm by a microplate reader (Synergy H1 Hybrid BioTek Instruments, Winooski, VT, USA).

eNOS mRNA in HUVECs = assay: RT-qPCR of eNOS in HUVECs; type: cell-based, human
Description: (§2) Total RNA was isolated using Trifast reagent (EuroClone) according to the manufacturer instructions from 3 × 10^5 cells/well treated with increasing concentrations of 1d and 1h for 48 h and 72 h. Complementary DNA (cDNA) was obtained using GoTaq® 2 Step RT-qPCR Kit (Promega, Madison, WI, USA) in accordance with the manufacturer’s instructions. RT-qPCR was carried out using SYBR Green (Promega) on the Quant Studio 7 Pro Real-Time PCR System (ThermoFisher, Waltham, MA, USA). The results were normalized to glyceraldehyde 3-phoshate dehydrogenase (GAPDH) for HUVECs and HGFs and to β-actin (βACT) for HOBs using the 2^−ΔΔCt method.

FN1 mRNA in HGFs = assay: RT-qPCR of FN1 in HGFs; type: cell-based, human; conditions: 5, 10, 20 µM, 48 and 72 h, compared to RSV-treated cells and CTRL
Description: as §2

ALP mRNA in HOBs = assay: RT-qPCR of ALP in HOBs; type: cell-based, human; conditions: all concentrations (5, 10, 20 µM), compared to CTRL; not significant
Description: as §2

OCN mRNA in HOBs = assay: RT-qPCR of OCN in HOBs; type: cell-based, human
Description: as §2

Water solubility = type: physicochemical; conditions: deionized water, 25 °C
Description: An excess of compounds 1d and 1h was placed in 1 mL of deionized water and the suspension was shaken at 25 °C for 15 min to ensure the solubility equilibrium. Next, the supernatant was filtered (Millipore 0.45 µm, Burlington, Massachusetts, USA) and analyzed by HPLC [49].

[6] = Kinetic of chemical hydrolysis, pH 7.0; type: physicochemical; conditions: pH 7.0, 37 °C; for Chemical hydrolysis Kobs: mean of three experiments (SD); for half-life at 18.2 µM: phosphate buffer, read-out: Chemical hydrolysis t ½ (converted)
Description: A phosphate buffer (PBS, pH 7.0) was used to estimate the chemical stability. The reaction was started by adding 1 mL of a 2 × 10^−4 M stock solution in ACN to a thermostatic (37 ± 0.5 °C) aqueous buffer solution (8 mL) and 2 mL of acetonitrile, containing 0.1% (v/v) Cremophor ELP. At established time points, samples (200 µL) were withdrawn and analyzed by HPLC. Pseudo-first-order rate constants (kobs) for the hydrolysis of the compound were calculated from the slopes of the linear plots of log (% residual compound) against time. The results are expressed as mean values of three different experiments.

[7] = 10 and 20 µM, differences not significant

Row | SMILES | LDH release (HUVECs [1]; 5 µM) | LDH release (HUVECs [1]; [7]) | LDH release (HGFs [2]; 5 µM) | LDH release (HGFs [2]; [7]) | HGFs proliferation rate (MTT) (HGFs [3]; 5 µM, 48 h) | HGFs proliferation rate (MTT) (HGFs [3]; 5 µM, 72 h) | HUVECs confluence (HUVECs [4]) | HUVECs growth / confluence (HUVECs [4]) | ALP activity in HOBs [5] | eNOS mRNA expression (eNOS mRNA in HUVECs; 5 µM, 48 h, vs CTRL and RSV) | eNOS mRNA expression (eNOS mRNA in HUVECs; 5, 10, 20 µM, 72 h) | FN1 mRNA level (FN1 mRNA in HGFs) | ALP mRNA level (ALP mRNA in HOBs) | OCN mRNA expression (OCN mRNA in HOBs; 5 µM, 48 h) | OCN mRNA expression (OCN mRNA in HOBs; 10 and 20 µM, 48 h) | Water solubility (Water solubility) | Chemical hydrolysis Kobs [6] | half-life at 18.2 µM [6] | melting point | also measured
1 | CCS(=O)(=O)Nc1ccc(/C=C/c2ccccc2)cc1 [1h, N-{4-[(E)-2-Phenylvinyl]phenyl}ethanesulfonamide] | lowest LDH values | slightly increased the LDH | lowest LDH values | slightly increased the LDH | cell proliferation was significantly higher | cell proliferation was significantly higher | reached confluence approximately earlier | growth was more consistent | same ALP levels observed in the control cells and osteoblasts treated with RSV | increased eNOS expression at 5 µM | slightly promoted | no significant modifications | slight increase in the ALP mRNA level | significantly stimulated OCN levels with respect to the CTRL | slightly promoted | insoluble in water | 0.030 (±0.001) h^−1 | 23.4 h | 230 to 231 °C | OCN mRNA expression (OCN mRNA in HOBs; 72 h, in respect to CTRL, levels comparable to RSV): slightly increased OCN expression
2 | Cc1ccc(S(=O)(=O)Nc2ccc(/C=C/c3ccccc3)cc2)cc1 [1d, 4-Methyl-N-{4-[(E)-2-phenylvinyl]phenyl}benzenesulfonamide] | lowest LDH values | slightly increased the LDH | lowest LDH values | slightly increased the LDH | significant increase in proliferation rate | significantly promoted cell proliferation | reached confluence approximately earlier | growth was more consistent | enhanced | increased after 48 h exposure to all 1d concentrations with statistical significance just for 5 µM | slightly promoted the enhancement of eNOS expression | no significant modifications | slight increase in the ALP mRNA level | increased after 48 h exposure to all 1d concentrations with statistical significance just for 5 µM | increased | insoluble in water | 0.050 (±0.004) h^−1 | 13.9 h | 182 to 183 °C | HGFs proliferation rate (MTT) (HGFs [3]; 10 µM, 48 h): slight increment of cell growth compared to RSV, but not in respect to the CTRL; HGFs proliferation rate (MTT) (HGFs [3]; 20 µM, 72 h): proliferative rate was lower; eNOS mRNA expression (eNOS mRNA in HUVECs; 10 and 20 µM, 48 h, not statistically significant): increased; OCN mRNA expression (OCN mRNA in HOBs; 5 µM, 72 h, compared to CTRL): highest significant peak; OCN mRNA expression (OCN mRNA in HOBs; 10, 20 µM, 72 h): slightly promoted the enhancement of OCN expression
